Laboratory results: ChEMBL document CHEMBL3871282, “Neo-tanshinlactone D-ring modified novel analogues induce apoptosis in human breast cancer cell via DNA damage” (Bioorg Med Chem, 2017)
Calls of active or inactive are those of the source. The calls are words filed in the database; no cut-off is given here.

What was measured:
[1] = Cytotoxicity against human WI38 cells assessed as cell growth inhibition after 24 hrs by MTT assay; format: toxicity, cell-based, WI-38
[2] = Cytotoxicity against human HaCaT cells assessed as cell growth inhibition after 24 hrs by MTT assay; format: toxicity, cell-based
[3] = species: Bos taurus; test: Binding affinity to calf thymus DNA assessed as decrease in […] at 50 uM measured at 260 nm by UV-Vis spectrophotometric analysis
[4] = species: Bos taurus; test: Binding affinity to calf thymus DNA assessed hyperchromic shift at 260 nm up to 1:1 compound to DNA ratio measured by UV-Vis spectrophotometric analysis
[5] = species: Bos taurus; test: Binding affinity to calf thymus DNA assessed as DNA positive band formation at 1:1 compound to DNA ratio by circular dichroism method
[6] = species: Bos taurus; test: Inhibition of DAPI binding to calf thymus DNA at 10 to 50 uM measured at 460 nm by fluorescence spectroscopic method
[7] = system: MCF7; test: Binding affinity to DNA in human MCF7 cells assessed as formation of DNA double strand breaks after 24 hrs by neutral comet assay; format: cell-based
[8] = system: MCF7; test: Binding affinity to DNA in human MCF7 cells assessed as formation of DNA double strand breaks after 24 hrs by alkaline comet assay; format: cell-based
[9] = system: MCF7; test: Binding affinity to DNA in human MCF7 cells assessed as formation of nuclear DNA double strand breaks at 12 nM after 24 hrs by DAPI-staining based fluorescence microscopic analysis; format: cell-based
[10] = system: MCF7; test: Induction of DNA double strand breaks in human MCF7 cells assessed as increase in H2AX to gamma-H2AX ratio after 24 hrs by Western blot analysis; format: cell-based
[11] = system: MCF7; test: Induction of DNA double strand breaks in human MCF7 cells assessed as increase in H2AX to gamma-H2AX ratio at near IC50 after 24 hrs by Western blot analysis relative to control; format: cell-based
[12] = system: MCF7; test: Disruption of mitochondrial membrane potential in human MCF7 cells assessed as decrease in red/green fluorescence ratio at 8 to 16 nM after 24 hrs by JC1-staining based fluorescent microscopic analysis; format: functional, cell-based
[13] = system: MCF7; test: Induction of apoptosis in human MCF7 cells at IC50 after 24 hrs by Annexin V/7AAD-dual staining based fluorescent microscopic analysis; format: functional
[14] = system: MCF7; test: Induction of apoptosis in human MCF7 cells assessed as early apoptotic cells at 8 nM after 24 hrs by Annexin V-FITC/propidium iodide-dual staining based FACS analysis (reference value: 2.3%); format: functional
[15] = system: MCF7; test: Induction of apoptosis in human MCF7 cells assessed as late apoptotic cells at 8 nM after 24 hrs by Annexin V-FITC/propidium iodide-dual staining based FACS analysis (reference value: 0.1%); format: functional
[16] = system: MCF7; test: Induction of apoptosis in human MCF7 cells assessed as early apoptotic cells at 12 nM after 24 hrs by Annexin V-FITC/propidium iodide-dual staining based FACS analysis (reference value: 2.3%); format: functional
[17] = system: MCF7; test: Induction of apoptosis in human MCF7 cells assessed as late apoptotic cells at 16 nM after 24 hrs by Annexin V-FITC/propidium iodide-dual staining based FACS analysis (reference value: 0.1%); format: functional
[18] = system: MCF7; test: Induction of DNA double strand breaks in human MCF7 cells assessed as activation of phosphorylated p53 at ser15 residue after 24 hrs immunoblot analysis; format: cell-based
[19] = system: MCF7; test: Induction of DNA double strand breaks in human MCF7 cells assessed as activation of phosphorylated Chk2 at Thr68 residue after 24 hrs immunoblot analysis; format: cell-based
[20] = Induction of DNA damage-mediated apoptosis in human MCF7 cells assessed as upregulation of cytochrome c after 24 hrs by immunoblot analysis; format: cell-based
[21] = system: MCF7; test: Induction of DNA damage-mediated apoptosis in human MCF7 cells assessed as increase in Bax/Bcl2 ratio after 24 hrs by immunoblot analysis; format: cell-based
[22] = system: MCF7; test: Induction of DNA damage-mediated apoptosis in human MCF7 cells assessed as cleavage of caspase-3 after 24 hrs by immunoblot analysis; format: cell-based
[23] = system: MCF7; test: Induction of DNA damage-mediated apoptosis in human MCF7 cells assessed as cleaved PARP after 24 hrs by immunoblot analysis; format: cell-based
[24] = system: MCF7; test: Induction of DNA damage-mediated apoptosis in human MCF7 cells assessed as activation of ERK1/2 at 12 nM up to 6 hrs by immunoblot analysis; format: cell-based
[25] = system: MCF7; test: Induction of DNA damage-mediated apoptosis in human MCF7 cells assessed as activation of p38 at 12 nM up to 4 hrs by immunoblot analysis; format: cell-based
[26] = system: MCF7; test: Induction of DNA damage-mediated apoptosis in human MCF7 cells assessed as deactivation of Akt at 12 nM after 2 hrs by immunoblot analysis; format: cell-based
[27] = system: MCF7; test: Induction of DNA damage-mediated apoptosis in human MCF7 cells assessed as increase in Rb-E2F1 interaction at 8 to 16 nM after 24 hrs by co-immunoprecipitation analysis; format: cell-based
[28] = system: MCF7; test: Induction of DNA damage-mediated apoptosis in human MCF7 cells assessed as Rb hypo-phosphorylation after 24 hrs by immunoblot analysis; format: cell-based
[29] = system: MCF7; test: Induction of DNA damage-mediated apoptosis in human MCF7 cells assessed as downregulation of HDAC2 after 24 hrs by DAPI staining based immunocytochemistry analysis; format: cell-based
[30] = system: MCF7; test: Induction of DNA damage-mediated apoptosis in human MCF7 cells assessed as delocalization of HDAC3 from nuclear to cytoplasm at 8 to 16 nM after 24 hrs by DAPI staining based immunocytochemistry analysis; format: cell-based
[31] = system: MCF7; test: Induction of DNA damage-mediated apoptosis in human MCF7 cells assessed as decrease in HDAC2 expression in cytoplasmic fraction at 8 to 16 nM after 24 hrs by immunoblot analysis; format: cell-based
[32] = system: MCF7; test: Induction of DNA damage-mediated apoptosis in human MCF7 cells assessed as decrease in HDAC3 expression in nuclear fraction at 8 to 16 nM after 24 hrs by immunoblot analysis; format: cell-based
[33] = system: Escherichia coli; test: Induction of Escherichia coli supercoiled pBR322 DNA cleavage assessed as increase in open circular form of DNA band after 3 hrs by ethidium bromide staining based agarose gel electrophoresis method
[34] = system: MCF7; test: Antiproliferative activity against human MCF7 cells assessed as effect on cellular morphology after 24 hrs by phase contrast microscopic method; format: functional, cell-based
[35] = system: MCF7; test: Induction of DNA damage-mediated apoptosis in human MCF7 cells assessed as phosphorylation of p53 at Ser-15 residue after 24 hrs by DAPI staining based immunocytochemistry analysis; format: cell-based
[36] = Cell cycle arrest in human MCF7 cells assessed as G0/G1 phase at 8 nM after 24 hrs by propidium iodide staining based FACS analysis (reference value: 43.9%); format: functional
[37] = Cell cycle arrest in human MCF7 cells assessed as G0/G1 phase at 12 nM after 24 hrs by propidium iodide staining based FACS analysis (reference value: 43.9%); format: functional
[38] = Cell cycle arrest in human MCF7 cells assessed as S phase at 12 nM after 24 hrs by propidium iodide staining based FACS analysis (reference value: 27.5%); format: functional
[39] = Cell cycle arrest in human MCF7 cells assessed as G2/M phase at 12 nM after 24 hrs by propidium iodide staining based FACS analysis (reference value: 28.3%); format: functional

Activity [3]: Active
Activity [4]: Active
Activity [5]: Active
inhibition [6]: Active
Activity [33]: Dose-dependent effect
Structure (SMILES): O=c1cc(OCc2ccccc2)c2ccc3ccccc3c2[nH]1
IC50 at 24 h [1]: > 100 µM
IC50 at 24 h [2]: > 100 µM
Activity [7]: Dose-dependent effect
Activity [8]: Dose-dependent effect
Activity [9]: Active
Activity [10]: Dose-dependent effect
fold change (FC) [11]: 6.3
Activity [12]: Active
Activity [13]: 44.78%
Activity [14]: 10.9%
Activity [15]: 7.2%
Activity [16]: 39%
Activity [17]: 5.6%
Activity [18]: Dose-dependent effect
Activity [19]: Dose-dependent effect
Activity [20]: Dose-dependent effect
Activity [21]: Dose-dependent effect
Activity [22]: Dose-dependent effect
Activity [23]: Dose-dependent effect
Activity [24]: Active
Activity [25]: Active
Activity [26]: Active
Activity [27]: Active
Activity [28]: Dose-dependent effect
Activity [29]: Dose-dependent effect
Activity [30]: Active
Activity [31]: Active
Activity [32]: Active
Activity [34]: Dose-dependent effect
Activity [35]: Dose-dependent effect
Activity [36]: 55.1%
Activity [37]: 58.1%
Activity [38]: 25.1%
Activity [39]: 16.2%
